This is an account of results in patent US8993257B2, “System and method for studying epidermis samples ex vivo” (University of Rochester, priority 2012, dated 2015).

In experiment [1] the test system is barrier-disrupted human epidermis. Put plainly: Paracellular flux across tape stripped (barrier-disrupted) human epidermis in the system. It is filed as cell-based. To be noted: compared with media alone. The procedure: (§1) The Weck blade is held at a 30-45° angle from the donor skin (e.g. living subject or discarded skins from plastic surgery procedures) surface, while a gentle traction behind the blade is provided by the other hand. Using different depths (e.g. […]), based on the skin sample source (e.g. based on differences in epidermal depth in different anatomical areas as well as species-specific differences), we can effectively isolate intact, full thickness epidermal samples with minimal to no dermis (e.g. subepithelial tissue). The epidermis is removed using that Weck surgical blade, cut into smaller samples to fit the apparatus and placed in a calcium-containing buffer until it is mounted in the device.
(§2) We have also used the invention to test the effect of cytokines relevant to human disease on epidermal barrier function recovery. Human discarded skin was tape stripped to induce a barrier impairment, this barrier-disrupted epidermis was isolated using the Weck blade and placed into the system. Samples were than treated for 24 h with human recombinant IL17A, a prototypic cytokine commonly found within the skin lesions of psoriasis (FIG. 6) or the Th2 cytokines, IL4 and IL13, commonly found in atopic dermatitis (FIG. 7). After 24 h treatment with human recombinant IL17A (50 and 100 ng/ml), TEER was increased, and paracellular flux was reduced as compared with a sample treated with media alone. Those data indicated IL17A enhanced epidermal barrier recovery.

The test system is the same in experiment [2]. As to the kind of experiment: TEER of tape stripped (barrier-disrupted) human epidermis in the system. It is filed as cell-based. To be noted: compared with media alone. As to the method: as §1, §2
Experiment [3] relates to intact human epidermis samples. To be noted: Histamine 100 μM; evaluated at 10, 20 and 30 minutes; epidermis isolated with dispase; FIG. 5.
Excerpt: The invention will allow measuring epidermal barrier integrity by evaluating transepithelial electric resistance (TEER), using a planar electrode (for example, Endohm-Snap; World Precision Instruments, Sarasota, Fla., USA), and a paracellular flux assay of for example, fluorescently labeled probes of different radii and sizes. Probes can be added to the upper well, and samples will be collected in the lower well over time to determine the paracellular flux. The amount of fluorescent probes that diffuse across the epidermis sample can be measured using an appropriate fluorometer or spectrophotometer.
The filter 206 of the original detachable ring 204 in the Snapwell™ (Corning, 3407) is replaced by a sandwich system 302 having two Plexiglas (or any other suitable material) inserts 304, with the epidermis/skin sample 306 lying in between them on a filter paper 308 (Nucleopore Track-etched, #110407; 13 mm diameter & pore: 0.4 μm) so that it covers the opening. The skin sample 306 is inserted with epidermis side up. Each of the inserts 304 has a hole 310 formed therein with a diameter of 0.3 cm and an area of 0.0707 cm^2. As in the conventional Snapwell™ system, the sandwich system is 302 is placed between an upper well 312 having a medium 314 and a lower well 316 having a medium 318. A volt-ohm meter 320 is connected between the two media. […]
Experiment [4] relates to murine skin samples (wild type and STAT6 mice). As to the kind of experiment: Skin barrier recovery after in vivo tape stripping, murine skin samples mounted in the system. The following applies: Pam3CSK4 10 μM; wild type versus STAT6 mice, n=3 each; normalized to WT vehicle control; FIG. 8. In kind it is cell-based. As to the method: For very thin skin samples isolated from rodents or other small mammalians, curettage along the dermal surface of the biopsy can be performed with a blade to minimize the amount of dermis taken. Alternatively, skin can be incubated in ammonium thiocyanate and epidermis removed from dermis. Murine skin can be isolated from any anatomical area, defatted using a surgical blade, cut into smaller samples to mount in the apparatus.
We have also used the present invention in a murine model. Skin barrier recovery after in vivo tape stripping was evaluated in wild type mice as compared to genetically modified mice that expressed a constitutively activated form of STAT6 under the CD2 locus, that results in the enhanced expression of Th2 cytokines (IL-4 and IL-13). Skin samples were collected from the healthy, nonperturbed skin of the back or from an area of the back that underwent tape stripping. The dermis was removed by scraping with a surgical blade and skin samples were mounted in the system. We observed no differences in recovery between the two mice strains. […] All data are normalized to WT vehicle control group. In FIG. 8, ns: not significant; *P<0.05, **P<0.01, ***P<0.001. (WT, n=3; STAT6VT, n=3).

[5] abbreviates: IL17A 50 and 100 ng/ml, 24 h treatment, FIG. 6.
Where [6] appears, read: IL4 (50 ng/ml) and IL13 (50 ng/ml) given together, FIG. 7.

As for “IL17A: human recombinant IL17A, a prototypic cytokine commonly found within the skin lesions of psoriasis”, the paracellular flux entry in experiment [1] (setting [5]) is given as “reduced”. The TEER result in experiment [2] (setting [5]) is listed as “increased”.
Regarding `NCCc1c[nH]cn1` [Histamine], in experiment [3], the “paracellular flux of fluorescein” value is listed as “enhanced”.
Turning to Pam3CSK4, the skin barrier recovery entry in experiment [4] was “greater recovery in wild type mice”.
With “IL13: human recombinant IL13, Th2 cytokine commonly found in atopic dermatitis”, the paracellular flux entry in experiment [1] (setting [6]) was “increased”. In experiment [2] (setting [6]), the TEER entry is on record as “reduced”.

B1: IL4: human recombinant IL4, Th2 cytokine commonly found in atopic dermatitis (protein, UniProt P05112 25-153, looked up)
Interleukin-4: HKCDITLQEIIKTLNSLTEQKTLCTELTVTDIFAASKNTTEKETFCRAATVLRQFYSHHEKDTRCLGATAQQFHRHKQLIRFLKRLDRNLWGLAGLNSCPVKEANQSTLENFLERLKTIMREKYSKCSS
For the molecule B1, the paracellular flux result in experiment [1] (setting [6]) is “increased”. Further, the TEER result in experiment [2] (setting [6]) is given as “reduced”.
